According to US11566049B2, “Cyclic peptides and uses thereof” (LATERAL IP PTY LTD, priority 2018, dated 2023):
“Also recorded” adds a separate entry of the source. Positions of bridges follow the written chain, without caps; N, C: chain ends. No end group written: not given here.

Legend:
[1] = tested on: Lamina I or II neurons in the dorsal horn; experiment: whole-cell patch clamp recording in spinal cord slices with intact dorsal root afferents from Chung models (Example 1); assay type: cell-based, rat
Procedure: An in vitro spinal cord slice with intact dorsal root afferents combined with single-cell whole-cell patch claim electrophysiological recording techniques was used to assess the electrophysiological properties of SEQ ID NO:26 (SCRSRPVESSC; also referred to herein as LAT9993).
Spinal cord slices were prepared from models of neuropathic pain (Chung models; as previously described in Chung et al., Methods Mol Med. 2004; 99:35-45, the contents of which are incorporated herein by reference) and tested against the peptide of SEQ ID NO:26. Chung model rats, aged 8 to 12 weeks, were housed in an air-conditioned room on a 12 hour light/dark cycle with food and water available ad libitum. The rats were terminally anaesthetized using isofluorane and decapitated. […]
Whole-cell recordings were performed at 34-35° C. from Lamina I or II neurons in the dorsal horm of the spinal cord slices using Axopatch 1D and/or Multiclamp 700B amplifies and using the “blind” version of the patch-clamp technique. […] Biocytin was included in the patch solution to allow post-recording identification of the recorded neurons. The peptide of SEQ ID NO:26 was applied to the recorded tissue in the tissue bath at concentrations between 0.5 μM and 5 μM.

[2] = tested on: Chung model rats; experiment: Chung model of neuropathic pain, paw withdrawal (Example 2); assay type: in vivo, rat; conditions: 10 mg/kg orally or intramuscular; 1, 2 and 4 hours post-dosing; n=8
Procedure: The peptide of SEQ ID NO:26 was administered at 10 mg/kg either orally (PQ) or by intramuscular (IM) injection to Chung model rats and pain was assessed by paw withdrawal. Pre-dosing control; Vehicle: 5% DMSO in PBS. *** p<0.001, compared to the same time points in the Vehicle control group; #p<0.05, compared to SEQ ID NO:26 PO group at the same time point. n=8 for each group.
An […] Chung model of chronic nerve constriction in rats (Chung et al., Methods Mol. Med. 2004; 99:35-45) was used to assess the effect of SEQ ID NO:26 on neuropathic pain. SEQ ID NO:26 was administered at 10 mg/kg either orally or by intramuscular injection to Chung model rats and pain was assessed by paw withdrawal.

SCRSRPVESSC (disulfide 2-11 (inferred); listed as Homo sapiens) [SEQ ID NO:26, cyclic peptide of formula (I) formed by a disulphide bond between the two cysteine residues]
neuronal input resistance (effect in words) ([1]; 1 μM (FIG. 2), bath applied): reduction in neuronal input resistance; also recorded: reversible on washout | excitatory postsynaptic potentials (EPSPs) ([1]; 5 μM (FIG. 3), 0.1 Hz, 1 Hz): suppressed | pain as measured by paw withdrawal threshold (PWT) [2]: significantly reduced pain
